Measurements as given in ChEMBL document CHEMBL1147084, “From the Cover: Antipsychotic drug-induced weight gain mediated by histamine H1 receptor-linked activation of hypothalamic AMP-kinase” (Proc Natl Acad Sci U S A, 2007).
Activity calls are given as the source filed them.

Columns and labels:
Mus musculus [1] = assay: Increase in phospho-AMPK levels in intact H1RKO mouse hypothalamus at 1 mg/kg after 3 hrs; type: functional, organism-based; design: dose 1 mg/kg
Mus musculus [2] = assay: Increase in phospho-AMPK level in arcuate hyphalamic nuclei intact H1RKO mouse at 1 mg/kg after 3 hrs by immunohistochemistry; type: functional, organism-based; design: dose 1 mg/kg
Mus musculus [3] = assay: Increase in phospho-AMPK level in arcuate hyphalamic nuclei intact H1RKO mouse at 5 mg/kg after 3 hrs by immunohistochemistry; type: functional, organism-based; design: dose 5 mg/kg
Mus musculus [4] = assay: Increase in cortical alpha-2AMPK levels in intact H1RKO mouse at 5 mg/kg after 3 hrs; type: functional
Mus musculus [5] = assay: Increase in alpha-2AMPK levels in intact H1RKO mouse cerebellum at 1 mg/kg after 3 hrs; type: functional, organism-based; design: dose 1 mg/kg
Mus musculus [6] = assay: Increase in phospho-AMPK in H1R knockout mouse at 3 mg/kg by immunohistochemistry; type: functional, organism-based; design: dose 3 mg/kg
[7] = target: T1, Neuropeptide Y receptor type 1 (Homo sapiens) (UniProt P25929); assay: Binding affinity to neuropeptide Y receptor at 100 nM
T1 sequence (whole entry): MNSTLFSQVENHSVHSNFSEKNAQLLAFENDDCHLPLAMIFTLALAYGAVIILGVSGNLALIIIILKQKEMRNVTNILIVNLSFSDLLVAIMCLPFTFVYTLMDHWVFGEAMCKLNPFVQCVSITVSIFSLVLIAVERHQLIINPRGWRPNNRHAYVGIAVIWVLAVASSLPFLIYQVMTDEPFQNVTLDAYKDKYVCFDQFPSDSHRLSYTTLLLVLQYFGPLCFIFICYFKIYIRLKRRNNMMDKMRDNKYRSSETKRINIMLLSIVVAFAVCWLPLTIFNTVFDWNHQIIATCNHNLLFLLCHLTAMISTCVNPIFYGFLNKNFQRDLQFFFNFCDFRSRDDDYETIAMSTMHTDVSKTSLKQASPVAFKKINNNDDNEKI

[8] = Binding affinity to alphaMSH receptor at 10 nM
Mus musculus [9] = assay: Increase in phospho-AMPK level in paraventricular hyphalamic nuclei intact H1RKO mouse at 5 mg/kg after 3 hrs by immunohistochemistry; type: functional, organism-based; design: dose 5 mg/kg
Mus musculus [10] = assay: Increase in phospho-AMPK levels in intact H1RKO mouse cerebellum at 1 mg/kg, ip after 3 hrs by Western blotting; type: functional, organism-based; design: dose 1 mg/kg
Mus musculus [11] = assay: Reversal of leptin-induced reduction in hyphalamic alpha-2AMPK activity in H1RKO mouse at 5 mg/kg; type: functional, organism-based; design: dose 5 mg/kg
Mus musculus [12] = assay: Increase in phospho-AMPK levels in intact H1RKO mouse liver at 1 mg/kg, ip after 3 hrs by Western blotting; type: functional, organism-based; design: dose 1 mg/kg
Mus musculus [13] = species on record: Mus musculus; assay: Orexigenic activity in H1RKO mouse; type: functional, organism-based
Mus musculus [14] = species on record: Mus musculus; assay: Reversal of insulin-induced reduction in hyphalamic phospho-AMPK level in H1RKO mouse at 50 nM after 30 mins by Western blotting; type: functional, organism-based
Mus musculus [15] = assay: Increase in alpha-2AMPK levels in intact H1RKO mouse cerebral cortex at 1 mg/kg after 3 hrs; type: functional, organism-based; design: dose 1 mg/kg
[16] = target: T2, Leptin receptor (Homo sapiens) (UniProt P48357); assay: Binding affinity to leptin receptor at 100 nM
T2 sequence (whole entry): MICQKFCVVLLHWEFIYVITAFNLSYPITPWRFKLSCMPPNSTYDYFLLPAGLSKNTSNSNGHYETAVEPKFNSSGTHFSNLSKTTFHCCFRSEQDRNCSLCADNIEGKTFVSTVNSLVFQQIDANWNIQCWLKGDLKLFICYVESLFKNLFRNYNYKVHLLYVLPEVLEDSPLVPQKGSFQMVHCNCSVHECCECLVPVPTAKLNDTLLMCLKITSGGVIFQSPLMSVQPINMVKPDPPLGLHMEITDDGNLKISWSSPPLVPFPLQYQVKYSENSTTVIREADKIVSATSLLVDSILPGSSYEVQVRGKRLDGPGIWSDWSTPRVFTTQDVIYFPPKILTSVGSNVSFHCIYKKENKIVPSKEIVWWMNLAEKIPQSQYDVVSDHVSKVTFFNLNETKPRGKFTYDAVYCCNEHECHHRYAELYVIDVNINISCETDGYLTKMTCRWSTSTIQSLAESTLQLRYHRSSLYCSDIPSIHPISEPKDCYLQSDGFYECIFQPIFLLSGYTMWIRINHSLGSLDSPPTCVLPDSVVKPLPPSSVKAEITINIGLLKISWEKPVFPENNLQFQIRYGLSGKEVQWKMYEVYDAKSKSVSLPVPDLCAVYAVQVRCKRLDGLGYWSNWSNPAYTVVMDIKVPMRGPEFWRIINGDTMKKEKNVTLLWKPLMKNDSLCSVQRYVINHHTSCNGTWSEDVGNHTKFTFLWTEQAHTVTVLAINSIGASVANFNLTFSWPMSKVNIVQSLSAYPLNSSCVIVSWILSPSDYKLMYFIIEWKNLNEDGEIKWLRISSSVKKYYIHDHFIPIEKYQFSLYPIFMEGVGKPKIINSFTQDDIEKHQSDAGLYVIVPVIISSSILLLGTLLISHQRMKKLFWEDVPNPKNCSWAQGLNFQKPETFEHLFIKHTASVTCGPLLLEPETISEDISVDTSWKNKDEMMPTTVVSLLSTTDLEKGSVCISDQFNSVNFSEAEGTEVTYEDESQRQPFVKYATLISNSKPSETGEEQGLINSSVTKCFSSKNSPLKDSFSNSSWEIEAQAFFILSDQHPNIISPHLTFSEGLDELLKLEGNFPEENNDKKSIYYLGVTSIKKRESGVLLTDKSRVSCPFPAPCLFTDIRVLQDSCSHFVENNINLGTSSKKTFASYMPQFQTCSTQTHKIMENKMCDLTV

Mus musculus [17] = assay: Increase in alpha-2AMPK levels in intact H1RKO mouse hypothalamus at 1 mg/kg after 3 hrs; type: functional, organism-based; design: dose 1 mg/kg
[18] = Binding affinity to alphaMSH receptor at 100 nM
Mus musculus [19] = assay: Reversal of leptin-induced reduction in hyphalamic phospho-AMPK in H1RKO mouse at 5 mg/kg after 3 hrs by Western blotting; type: functional, organism-based; design: dose 5 mg/kg
Mus musculus [20] = species on record: Mus musculus; assay: Reversal of leptin-induced reduction in hyphalamic phospho-AMPK level in H1RKO mouse at 50 nM after 30 mins by Western blotting; type: functional, organism-based
[21] = target: T2, Leptin receptor (Homo sapiens); assay: Binding affinity to leptin receptor at 10 nM
Mus musculus [22] = assay: Increase in phospho-AMPK level in paraventricular hyphalamic nuclei intact H1RKO mouse at 1 mg/kg after 3 hrs by immunohistochemistry; type: functional, organism-based; design: dose 1 mg/kg
Hypothalamus = assay: Increase in phospho-AMPK levels in H1RKO mouse hyphalamic slices at 500 nM after 30 mins by Western blotting; type: functional, tissue-based
[23] = target: T1, Neuropeptide Y receptor type 1 (Homo sapiens); assay: Binding affinity to neuropeptide Y receptor at 10 nM
Mus musculus [24] = species on record: Mus musculus; assay: Reversal of histamine-induced reduction in hyphalamic phospho-AMPK level in H1RKO mouse at 200 nM after 30 mins by Western blotting; type: functional, organism-based
Mus musculus [25] = assay: Increase in alpha-2AMPK levels in intact H1RKO mouse cerebellum at 5 mg/kg after 3 hrs; type: functional, organism-based; design: dose 5 mg/kg
Histamine H1 receptor = Histamine H1 receptor (Rattus norvegicus, UniProt P31390); assay: biochemical
Description: Displacement of [3H]mepyramine from H1R in rat brain

Mus musculus [26] = assay: Increase in phospho-AMPK level in paraventricular hyphalamic nuclei intact H1RKO mouse at 3 mg/kg, ip after 3 hrs by immunohistochemistry; type: functional, organism-based; design: dose 3 mg/kg
Mus musculus [27] = assay: Increase in phospho-AMPK levels in intact H1RKO mouse hypothalamus at 3 mg/kg, ip after 3 hrs by Western blotting; type: functional, organism-based; design: dose 3 mg/kg

Histamine H1 receptor, sequence (P31390 whole entry): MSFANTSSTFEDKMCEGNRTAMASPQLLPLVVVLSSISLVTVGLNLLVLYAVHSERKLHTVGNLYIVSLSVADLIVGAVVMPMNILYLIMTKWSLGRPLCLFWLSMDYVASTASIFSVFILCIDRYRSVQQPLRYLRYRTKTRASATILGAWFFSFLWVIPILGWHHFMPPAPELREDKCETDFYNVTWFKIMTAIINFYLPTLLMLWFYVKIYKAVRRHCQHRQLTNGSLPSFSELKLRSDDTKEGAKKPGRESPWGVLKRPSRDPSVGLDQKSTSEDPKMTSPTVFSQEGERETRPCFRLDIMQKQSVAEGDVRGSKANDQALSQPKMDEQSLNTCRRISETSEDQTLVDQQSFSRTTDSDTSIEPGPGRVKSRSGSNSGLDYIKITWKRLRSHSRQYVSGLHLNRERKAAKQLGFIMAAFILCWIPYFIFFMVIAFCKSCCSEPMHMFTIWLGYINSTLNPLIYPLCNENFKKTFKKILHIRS

CN1CCN(C2=Nc3cc(Cl)ccc3Nc3ccccc32)CC1 [CLOZAPINE]
20%: Activity (Mus musculus [4])
active: Activity (Mus musculus [1]) | Activity (Mus musculus [2]) | Activity (Mus musculus [3]) | Activity (Mus musculus [9]) | Activity (Mus musculus [11]) | Activity (Mus musculus [13]) | Activity (Mus musculus [14]) | Activity (Mus musculus [17]) | Activity (Mus musculus [19]) | Activity (Mus musculus [20]) | Activity (Mus musculus [22]) | Activity (Hypothalamus) | Activity (Mus musculus [24])
inactive: Activity (Mus musculus [5]) | Activity (Mus musculus [6]) | Activity [7] | Activity [8] | Activity (Mus musculus [10]) | Activity (Mus musculus [12]) | Activity (Mus musculus [15]) | Activity [16] | Activity [18] | Activity [21] | Activity [23] | Activity (Mus musculus [25])

O=C1CCc2ccc(OCCCCN3CCN(c4cccc(Cl)c4Cl)CC3)cc2N1 [ARIPIPRAZOLE]
> 3 µM: IC50 (Histamine H1 receptor)
inactive: Activity (Mus musculus [13]) | Activity (Hypothalamus)

Cc1cc2c(s1)Nc1ccccc1N=C2N1CCN(C)CC1
inactive: Activity [7] | Activity [8] | Activity [16] | Activity [18] | Activity [21] | Activity [23]
active: Activity (Mus musculus [13]) | Activity (Hypothalamus)

O=C1Cc2cc(CCN3CCN(c4nsc5ccccc45)CC3)c(Cl)cc2N1
inactive: Activity (Mus musculus [26]) | Activity (Mus musculus [13]) | Activity (Hypothalamus)

Cc1nc2n(c(=O)c1CCN1CCC(c3noc4cc(F)ccc34)CC1)CCCC2
inactive: Activity (Hypothalamus)

OCCOCCN1CCN(C2=Nc3ccccc3Sc3ccccc32)CC1
active: Activity (Mus musculus [13]) | Activity (Hypothalamus)

Cc1ccc(/C(=C\CN2CCCC2)c2ccccn2)cc1
active: Activity (Mus musculus [27]) | Activity (Hypothalamus)

O=C(CCCN1CCC(O)(c2ccc(Cl)cc2)CC1)c1ccc(F)cc1
inactive: Activity (Mus musculus [13]) | Activity (Hypothalamus)
